Key:
[1] = target: T1, Tyrosine-protein kinase JAK3 (Homo sapiens, UniProt P52333); assay: ChEBML_91954
T1 sequence (P52333 whole entry): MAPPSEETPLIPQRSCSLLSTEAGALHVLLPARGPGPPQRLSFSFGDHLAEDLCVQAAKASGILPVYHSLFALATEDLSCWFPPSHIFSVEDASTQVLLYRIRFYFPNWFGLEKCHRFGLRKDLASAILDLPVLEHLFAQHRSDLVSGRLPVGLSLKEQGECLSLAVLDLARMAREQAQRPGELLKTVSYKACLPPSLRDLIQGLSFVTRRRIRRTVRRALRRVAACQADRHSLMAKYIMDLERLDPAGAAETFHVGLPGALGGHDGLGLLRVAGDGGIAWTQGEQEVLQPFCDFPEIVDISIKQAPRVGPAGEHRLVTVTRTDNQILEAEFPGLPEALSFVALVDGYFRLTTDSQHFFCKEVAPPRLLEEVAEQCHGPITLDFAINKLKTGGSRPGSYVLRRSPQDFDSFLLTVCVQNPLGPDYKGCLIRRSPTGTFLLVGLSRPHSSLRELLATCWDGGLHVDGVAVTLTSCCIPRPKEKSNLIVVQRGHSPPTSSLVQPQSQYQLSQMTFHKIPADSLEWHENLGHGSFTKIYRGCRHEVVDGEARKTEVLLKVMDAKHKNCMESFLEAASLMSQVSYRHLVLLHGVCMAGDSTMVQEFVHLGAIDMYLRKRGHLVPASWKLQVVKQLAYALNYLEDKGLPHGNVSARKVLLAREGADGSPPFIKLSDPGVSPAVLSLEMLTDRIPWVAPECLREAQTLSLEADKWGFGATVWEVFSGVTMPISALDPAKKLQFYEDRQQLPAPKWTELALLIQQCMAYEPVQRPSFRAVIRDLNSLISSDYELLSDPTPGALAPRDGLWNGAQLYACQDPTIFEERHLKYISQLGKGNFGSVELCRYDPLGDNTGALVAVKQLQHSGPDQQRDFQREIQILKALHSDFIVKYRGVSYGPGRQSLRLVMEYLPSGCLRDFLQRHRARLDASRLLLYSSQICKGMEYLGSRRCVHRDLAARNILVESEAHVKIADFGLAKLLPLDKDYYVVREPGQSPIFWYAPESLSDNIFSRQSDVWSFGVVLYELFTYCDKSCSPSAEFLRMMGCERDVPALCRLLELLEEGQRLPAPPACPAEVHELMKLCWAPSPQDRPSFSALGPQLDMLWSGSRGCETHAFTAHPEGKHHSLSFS
Description: (§1) In vitro inhibition of Janus kinase 3.

[2] = target: T1, Tyrosine-protein kinase JAK3; assay: as §1

SMILES: CN(C)CCC(=O)c1ccc2ccccc2c1
- IC50 [1]: 0.63 µM

SMILES: N#C/C(=C\c1ccc(O)c(O)c1)C(=O)NCc1ccccc1
- IC50 [1]: 12.6 µM

SMILES: CC(=Cc1ccccc1)C(=O)CCN1CCOCC1
- IC50 [1]: 12.6 µM

SMILES: ON=C(CCN1CCOCC1)c1ccc2ccccc2c1
- IC50 [2]: > 1000 µM

SMILES: CC(C)(CN1CCOCC1)C(=O)c1ccc2ccccc2c1
- IC50 [2]: > 1000 µM

SMILES: CC(C)N(CCC(=O)c1ccc2ccccc2c1)Cc1ccccc1
- IC50 [1]: 0.0794 µM

SMILES: O=C(CCN1CCOCC1)c1ccc2ccccc2c1
- IC50 [1]: 2 µM

SMILES: O=C(CCNCc1ccccc1)c1ccc2ccccc2c1
- IC50 [2]: > 1000 µM

SMILES: COc1ccc2cc(C(=O)CCN3CCOCC3)ccc2c1
- IC50 [1]: 15.8 µM

SMILES: C=CC(O)c1ccc2ccccc2c1 (stereo not drawn)
- IC50 [1]: 501 µM

SMILES: O=C(C=Cc1ccccc1Cl)CCN1CCOCC1
- IC50 [1]: 12.6 µM

SMILES: O=C(CCCN1CCOCC1)c1ccc2ccccc2c1
- IC50 [2]: > 1000 µM

SMILES: C=CC(=O)c1ccc2ccccc2c1 [Thr1 inhibitor, 1]
- IC50 [1]: 0.0794 µM

SMILES: O=C(CCN1CCCCCC1)c1ccc2ccccc2c1
- IC50 [1]: 0.794 µM

SMILES: COc1cc2ccc(C(=O)CCN3CCOCC3)cc2cc1OC
- IC50 [1]: 200 µM

SMILES: O=C(CCN1CCOCC1)c1ccc2ccc3ccccc3c2c1
- IC50 [1]: 0.501 µM

SMILES: O=c1c(CN2CCOCC2)coc2cc3ccccc3cc12
- IC50 [2]: > 1000 µM

SMILES: O=C(CCN1CCOCC1)c1cccc2ccccc12
- IC50 [1]: 3.16 µM

— BindingDB's records for doi:10.1016/s0960-894x(00)00051-2 (Astrazeneca, 2000)
